Assays:
[1] = Acute oral toxicity (median lethal dose) in mice; conditions: mouse, in vivo, oral administration
Description: The median lethal dose (LD50) was evaluated upon oral administration of the products to mice.

[2] = system: total acidity of the gastric secretions; test: Gastric antisecretory activity in pylorus-ligated rats (Shay technique); type: in vivo; conditions: dose of 10 mg/kg, intraduodenal, male rats, 3 hours
Description: B. Determination of the gastric antisecretory activity
The technique used is described by H. Shay et al in Gastro. Enterology, 5 43 (1945).
Male rats are used of a weight of about 200 g, which had been deprived of food for 48 hours, but with 8% glucose solution ad libitum. The pylorus of the rats, which had been slightly anesthetized with ether, is ligated and then, upon the end of the operation, the product to be tested is administered in different doses or, in the case of the control animals, an 0.5% solution of carboxymethyl cellulose is administered intraduodenally, whereupon the abdominal incision is sutured.
Three hours later, the animals are sacrificed and their stomachs removed after ligation of the esophagus.
The gastric juice is removed and centrifuged. The volume is then noted and the total acidity is determined on 100 μl of gastric juice by titration to a pH of 7 by means of 1/100N caustic soda.
The percentages of variation of total acidity of the gastric secretions are calculated, as compared with the results obtained with the control animals.

| SMILES | LD50 [1] | percentage of variation of total acidity of the gastric secretions as compared with control animals [2] |
| --- | --- | --- |
| Cc1cc(O)c(C(=O)C=CC(=O)O)c(=O)o1 [Example 2, 4-(2-oxo-4-hydroxy-6-methyl-2H-pyran-3-yl)-4-oxo-buten-2-oic acid] | 350 mg/kg | 70% |
| O=C(O)C=CC(=O)c1cc2ccccc2o1 [Example 1, 4-(benzofuran-2-yl)-4-oxo-buten-2-oic acid] | 350 mg/kg | 53% |
| Cc1nc(C(=O)/C=C/C(=O)O)c(C)o1 [Example 4, Trans 4-(2,5-dimethyl-oxazol-4-yl)-4-oxo-buten-2-oic acid] | 350 mg/kg | 77% |
| Cc1ccc(C(=O)/C=C/C(=O)O)o1 [Example 6, Trans 4-(5-methyl-2-furyl)-4-oxo-2-butenoic Acid] | 350 mg/kg | 75% |
| Cc1cc(C(=O)/C=C/C(=O)O)c(C)o1 [Example 7, Trans 4-(2,5-dimethyl-3-furyl)-4-oxo-2-butenoic Acid] | 350 mg/kg | 45% |
| O=C(O)C=CC(=O)c1ccco1 [Example 3, 4-(2-furyl)-4-oxo-buten-2-oic acid] | 750 mg/kg | 94% |
| Cc1noc(C)c1C(=O)/C=C/C(=O)O [Example 5, Trans-4(3,5-dimethyl-isoxazol-4-yl)-4-oxo-buten-2-oic acid] | 350 mg/kg | 87% |

From patent publication US4814348A, “Therapeutic compositions containing derivatives of acrylic acid having an oxygen-containing heterocycle, therapeutic treatment therewith and new compounds” (Roussel Uclaf, priority 1983, dated 1989)
